# In ChEMBL document CHEMBL1201862, “PubChem BioAssay data set” (2004):
# Activity calls are given as the source filed them.
# Columns and labels:
# [1] = biological target: Neurotensin receptor type 1 (Homo sapiens, UniProt P30989); format: functional;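 note: Image-based confirmatory dose-response assay measuring agonist activity at NTR1; NTR1-expressing U2OS osteosarcoma cells imaged for beta-arrestin GFP spot formation; agonist potency where compounds increase beta-arrestin recruitment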
# [2] = general cell-killing toxicity readout – plate reader, dry powder samples, cytotoxicity control for PAX8 inhibitor project, dose response (AID 743021); format: functional, cell-based
# [3] = biological target: T1, Rac GTPase-activating protein 1 (Homo sapiens, UniProt Q9H0H5); test: blockers of MgcRacGAP-driven Rac1 GTP hydrolysis – biochemical, ADP Hunter fluorescence, primary and confirmatory, confirmation (AID 624330); format: functional
# T1 sequence (Q9H0H5 whole entry): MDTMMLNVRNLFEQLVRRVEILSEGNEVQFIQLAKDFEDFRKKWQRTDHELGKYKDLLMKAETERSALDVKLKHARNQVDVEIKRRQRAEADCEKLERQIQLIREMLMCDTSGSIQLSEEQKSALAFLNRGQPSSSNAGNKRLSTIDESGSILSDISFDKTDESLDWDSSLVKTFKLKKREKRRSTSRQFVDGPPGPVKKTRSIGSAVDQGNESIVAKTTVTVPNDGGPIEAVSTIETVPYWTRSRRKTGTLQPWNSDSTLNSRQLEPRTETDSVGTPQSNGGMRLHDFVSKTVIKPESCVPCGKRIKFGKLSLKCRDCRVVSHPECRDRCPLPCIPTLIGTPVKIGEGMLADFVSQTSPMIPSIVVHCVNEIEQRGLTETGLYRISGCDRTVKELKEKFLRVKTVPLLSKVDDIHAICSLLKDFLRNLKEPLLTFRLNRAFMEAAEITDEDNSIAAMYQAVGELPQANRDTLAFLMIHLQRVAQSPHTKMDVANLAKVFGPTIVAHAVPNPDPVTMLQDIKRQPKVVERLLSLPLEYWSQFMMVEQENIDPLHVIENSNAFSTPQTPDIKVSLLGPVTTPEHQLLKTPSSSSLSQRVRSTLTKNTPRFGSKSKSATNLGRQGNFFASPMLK
# [4] = biological target: T2, DNA repair protein RAD52 homolog (Homo sapiens, UniProt P43351); format: functional, biochemical
# T2 sequence (P43351 whole entry): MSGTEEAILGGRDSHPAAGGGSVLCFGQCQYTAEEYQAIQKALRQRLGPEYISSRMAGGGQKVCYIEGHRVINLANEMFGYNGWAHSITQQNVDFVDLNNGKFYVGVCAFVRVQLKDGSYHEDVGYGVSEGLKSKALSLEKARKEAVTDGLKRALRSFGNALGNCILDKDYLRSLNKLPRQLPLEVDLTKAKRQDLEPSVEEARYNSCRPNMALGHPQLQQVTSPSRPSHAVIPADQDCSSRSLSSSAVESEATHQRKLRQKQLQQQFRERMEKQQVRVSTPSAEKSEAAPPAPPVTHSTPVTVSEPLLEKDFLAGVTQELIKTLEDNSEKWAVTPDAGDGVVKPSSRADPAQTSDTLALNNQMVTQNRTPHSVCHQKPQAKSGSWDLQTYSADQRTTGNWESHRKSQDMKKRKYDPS
# BJ [5] = test: BJ-TERT-LT-ST fibroblast viability loss – cell-based, RAS-independent, luminescence, dose response (AID 1935); format: functional; settings: Homo sapiens;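 note: BJ fibroblasts immortalized with TERT plus LT and ST oncogenes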
# BJ [6] = test: BJ-TERT fibroblast viability loss – cell-based, RAS-independent, luminescence, dose response (AID 1933); format: functional; settings: Homo sapiens
# [7] = DRD fibroblast viability loss – cell-based, non-viral oncogenic, luminescence, dose response (AID 1934); format: functional; settings: Homo sapiens
# [8] = Trypanosoma cruzi growth suppression in host cells – NIH3T3 host cells, beta-gal luminescence, confirmation (AID 2044); format: functional, cell-based;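 note: intracellular parasites grown in NIH/3T3 mouse fibroblasts as host cells; luminescent beta-galactosidase reporter signal from transgenic T. cruzi replicating inside host cells; inhibitors lower the luminescence signal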
# [9] = viability loss in HeLa cells – cytotoxicity control for MgcRacGAP inhibitor project, dose response (AID 624300); format: functional
# [10] = NIH3T3 cell viability loss – ATP luminescence, mouse fibroblasts, counter-screen, dose response (AID 2010); format: functional, cell-based;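 note: cells exposed to compound for about 90 hours before reading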
# INS1 = test: INS-1E survival protection against cytokine death – cell-based, luminescence, retest, dose response (AID 449756); format: functional; settings: Rattus norvegicus;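 note: cell death triggered by IL-1 beta plus TNF-alpha plus IFN-gamma mixture; protective hits raise ATP signal compared with cytokine alone wells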
# Paired box protein Pax-8 = Paired box protein Pax-8 (Homo sapiens, UniProt Q06710); test: PAX8 transcriptional activity inhibition in RMG-I – RMG-I cells, luciferase, cherry-pick, dose response (AID 687027); format: functional, cell-based;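 note: luciferase reporter driven by Pax8 target thyroperoxidase promoter measured by SteadyGlo luminescence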
# Sequence of Paired box protein Pax-8 (Q06710 whole entry): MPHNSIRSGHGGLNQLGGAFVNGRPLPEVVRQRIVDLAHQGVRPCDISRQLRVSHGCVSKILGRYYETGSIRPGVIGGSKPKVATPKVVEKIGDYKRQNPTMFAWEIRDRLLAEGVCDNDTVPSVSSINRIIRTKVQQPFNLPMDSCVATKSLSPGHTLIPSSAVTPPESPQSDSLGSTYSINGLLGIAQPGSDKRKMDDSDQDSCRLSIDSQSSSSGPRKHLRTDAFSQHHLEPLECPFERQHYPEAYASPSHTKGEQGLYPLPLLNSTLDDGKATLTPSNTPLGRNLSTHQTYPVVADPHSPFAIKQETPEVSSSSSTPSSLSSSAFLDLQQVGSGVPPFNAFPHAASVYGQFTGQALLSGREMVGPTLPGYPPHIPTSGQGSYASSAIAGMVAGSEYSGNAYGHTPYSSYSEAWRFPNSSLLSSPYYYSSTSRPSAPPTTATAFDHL
# BJ [11] = test: cells; format: functional, cell-based; settings: Homo sapiens
# Nonstructural protein 1 = Nonstructural protein 1 (Influenza A virus, UniProt Q194T2); format: functional, Influenza A virus (A/California/07/2009(H1N1))
# Sequence of Nonstructural protein 1 (Q194T2 whole entry): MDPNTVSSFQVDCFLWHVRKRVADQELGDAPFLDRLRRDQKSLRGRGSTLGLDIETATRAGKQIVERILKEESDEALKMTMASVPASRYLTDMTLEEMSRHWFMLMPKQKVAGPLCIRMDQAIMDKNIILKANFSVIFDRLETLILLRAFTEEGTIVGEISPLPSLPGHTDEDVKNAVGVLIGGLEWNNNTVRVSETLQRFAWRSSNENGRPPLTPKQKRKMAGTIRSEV
# [12] = HGIII-sPLA2 enzyme inhibition potency – biochemical, QFRET, IC50, dose response (AID 743457);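 note: green fluorescence rise as the enzyme cleaves BODIPY PC-A2 in liposomes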
# [13] = biological target: Matrix metalloproteinase-14 (Homo sapiens, UniProt P50281); test: Dose Response confirmation of uHTS hits for a small molecule inhibitors of MT1-MMP activation in a fluorescence assay set 1.; format: functional
# [14] = biological target: T3, Heat shock factor protein 1 (Mus musculus, UniProt P38532); test: decrease of HSF1-responsive luciferase luminescence – cell-based, NIH3T3, dose retest, confirmation (AID 2382); format: functional;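 note: NIH3T3 fibroblasts with HSF1-driven luciferase reporter stressed by proteasome inhibitor MG132; luminescence from HSF1-driven luciferase expression after 8 hours of MG132 stress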
# T3 sequence (P38532 whole entry): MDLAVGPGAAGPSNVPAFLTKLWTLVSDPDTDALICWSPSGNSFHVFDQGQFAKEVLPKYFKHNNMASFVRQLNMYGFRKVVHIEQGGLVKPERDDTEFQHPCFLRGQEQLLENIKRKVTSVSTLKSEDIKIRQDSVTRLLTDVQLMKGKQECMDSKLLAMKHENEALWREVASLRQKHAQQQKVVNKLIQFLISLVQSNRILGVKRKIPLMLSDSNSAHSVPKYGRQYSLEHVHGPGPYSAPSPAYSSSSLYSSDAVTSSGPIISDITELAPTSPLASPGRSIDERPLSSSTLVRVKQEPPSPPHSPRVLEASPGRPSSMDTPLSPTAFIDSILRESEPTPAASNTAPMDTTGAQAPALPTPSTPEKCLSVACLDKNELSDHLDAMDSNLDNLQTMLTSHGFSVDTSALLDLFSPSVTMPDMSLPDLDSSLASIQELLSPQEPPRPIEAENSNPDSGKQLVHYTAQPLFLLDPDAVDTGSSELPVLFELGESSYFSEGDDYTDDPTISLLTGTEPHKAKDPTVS
# [15] = biological target: T4, Methionyl-tRNA synthetase, putative (Trypanosoma brucei brucei, UniProt Q38C91); format: functional, Trypanosoma brucei brucei strain 927/4 GUTat10.1
# T4 sequence (Q38C91 whole entry): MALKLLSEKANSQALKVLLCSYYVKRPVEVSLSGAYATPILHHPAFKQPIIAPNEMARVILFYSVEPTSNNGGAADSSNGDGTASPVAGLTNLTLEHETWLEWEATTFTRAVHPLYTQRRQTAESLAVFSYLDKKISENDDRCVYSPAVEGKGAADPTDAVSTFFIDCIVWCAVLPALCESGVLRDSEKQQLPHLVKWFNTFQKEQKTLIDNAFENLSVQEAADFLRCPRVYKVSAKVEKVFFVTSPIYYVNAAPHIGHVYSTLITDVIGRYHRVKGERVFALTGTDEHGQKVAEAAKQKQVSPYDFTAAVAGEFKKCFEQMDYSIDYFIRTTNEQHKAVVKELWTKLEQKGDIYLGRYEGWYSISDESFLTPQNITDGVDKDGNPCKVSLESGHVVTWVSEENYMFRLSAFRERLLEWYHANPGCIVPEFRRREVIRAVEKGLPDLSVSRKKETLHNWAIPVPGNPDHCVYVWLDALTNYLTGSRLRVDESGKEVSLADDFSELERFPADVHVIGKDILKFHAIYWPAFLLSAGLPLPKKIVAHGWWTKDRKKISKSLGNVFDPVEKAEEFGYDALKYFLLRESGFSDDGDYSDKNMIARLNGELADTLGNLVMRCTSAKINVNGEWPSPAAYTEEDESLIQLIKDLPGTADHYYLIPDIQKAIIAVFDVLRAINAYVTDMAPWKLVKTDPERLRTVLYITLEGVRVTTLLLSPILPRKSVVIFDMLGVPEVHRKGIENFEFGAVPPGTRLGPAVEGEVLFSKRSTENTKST
# [16] = biological target: T4, Methionyl-tRNA synthetase, putative; format: functional, Trypanosoma brucei brucei strain 927/4 GUTat10.1; remark: listed apart in the source
# [17] = biological target: T5, Sentrin-specific protease 1 (Homo sapiens, UniProt Q9P0U3); test: Dose response confirmation of small molecule inhibitors of the catalytic domain of the SUMO protease, SENP1 in a FRET assay.; format: functional; settings: read-out: IC50_Mean
# T5 sequence (Q9P0U3 whole entry, the tested form may be a part): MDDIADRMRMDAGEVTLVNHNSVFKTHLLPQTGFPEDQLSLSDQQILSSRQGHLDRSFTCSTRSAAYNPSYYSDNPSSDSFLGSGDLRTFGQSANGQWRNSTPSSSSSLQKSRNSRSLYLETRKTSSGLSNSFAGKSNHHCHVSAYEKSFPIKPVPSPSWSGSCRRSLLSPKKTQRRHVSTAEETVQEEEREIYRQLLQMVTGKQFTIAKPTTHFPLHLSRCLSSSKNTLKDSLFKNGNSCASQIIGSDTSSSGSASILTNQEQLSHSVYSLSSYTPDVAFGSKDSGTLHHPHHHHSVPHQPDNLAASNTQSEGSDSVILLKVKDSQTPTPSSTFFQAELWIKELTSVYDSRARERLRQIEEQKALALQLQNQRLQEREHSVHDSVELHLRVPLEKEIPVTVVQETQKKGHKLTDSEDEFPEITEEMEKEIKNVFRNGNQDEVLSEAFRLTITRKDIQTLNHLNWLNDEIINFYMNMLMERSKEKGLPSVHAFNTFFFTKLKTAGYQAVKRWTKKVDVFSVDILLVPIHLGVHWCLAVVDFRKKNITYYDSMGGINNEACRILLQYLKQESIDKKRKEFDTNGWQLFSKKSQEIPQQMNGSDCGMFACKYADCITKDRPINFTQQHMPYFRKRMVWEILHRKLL
# [18] = biological target: T5, Sentrin-specific protease 1; test: SENP1 catalytic domain blockers, concentration series – biochemical, kinetic FRET, dose response (AID 651697); format: functional; settings: read-out: IC50_Mean
# Beta-galactosidase = Beta-galactosidase (Escherichia coli, UniProt Q8VNN2); test: Dose response counterscreen for EBI2 assay utilizing the enzyme, b-galactosidase.; format: functional
# Sequence of Beta-galactosidase (Q8VNN2 whole entry): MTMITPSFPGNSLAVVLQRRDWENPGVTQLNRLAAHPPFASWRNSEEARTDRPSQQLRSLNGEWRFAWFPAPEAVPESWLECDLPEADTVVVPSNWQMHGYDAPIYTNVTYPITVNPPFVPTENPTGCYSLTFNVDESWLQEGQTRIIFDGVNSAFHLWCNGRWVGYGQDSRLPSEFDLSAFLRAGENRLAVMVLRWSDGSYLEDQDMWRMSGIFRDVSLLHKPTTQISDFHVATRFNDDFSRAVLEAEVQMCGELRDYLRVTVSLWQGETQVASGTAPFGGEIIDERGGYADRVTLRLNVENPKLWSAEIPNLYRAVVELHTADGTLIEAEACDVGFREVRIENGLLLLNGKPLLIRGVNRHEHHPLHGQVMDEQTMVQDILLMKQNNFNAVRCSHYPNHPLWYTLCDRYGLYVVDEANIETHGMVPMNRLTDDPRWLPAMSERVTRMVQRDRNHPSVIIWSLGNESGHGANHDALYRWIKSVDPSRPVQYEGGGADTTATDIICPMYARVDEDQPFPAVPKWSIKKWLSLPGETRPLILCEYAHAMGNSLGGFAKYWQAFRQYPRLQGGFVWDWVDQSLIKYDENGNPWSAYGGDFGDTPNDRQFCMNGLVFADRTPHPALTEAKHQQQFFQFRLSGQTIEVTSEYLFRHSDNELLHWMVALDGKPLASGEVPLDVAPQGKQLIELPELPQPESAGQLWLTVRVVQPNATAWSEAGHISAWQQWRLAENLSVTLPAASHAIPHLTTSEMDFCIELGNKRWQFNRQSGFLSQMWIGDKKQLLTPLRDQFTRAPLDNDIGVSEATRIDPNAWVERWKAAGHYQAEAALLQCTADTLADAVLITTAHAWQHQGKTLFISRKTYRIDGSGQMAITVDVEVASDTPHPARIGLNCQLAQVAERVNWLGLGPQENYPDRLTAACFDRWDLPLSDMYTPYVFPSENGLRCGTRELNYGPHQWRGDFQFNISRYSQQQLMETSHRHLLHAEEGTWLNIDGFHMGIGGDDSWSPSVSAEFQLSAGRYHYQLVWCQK
# [19] = biological target: T6, Probable nicotinate-nucleotide adenylyltransferase (Staphylococcus aureus (strain N315), UniProt P65502); format: functional, Staphylococcus aureus subsp. aureus N315;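 for IC50 Mean: confirmatory dose-response retesting of NadD inhibitor hits first found in an ultra-high-throughput screen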
# T6 sequence (P65502 whole entry): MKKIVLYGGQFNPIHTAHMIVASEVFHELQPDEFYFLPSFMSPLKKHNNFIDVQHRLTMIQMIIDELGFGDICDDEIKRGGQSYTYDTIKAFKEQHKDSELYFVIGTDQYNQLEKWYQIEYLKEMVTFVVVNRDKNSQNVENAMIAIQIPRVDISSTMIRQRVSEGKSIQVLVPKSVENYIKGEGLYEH
# [20] = biological target: T6, Probable nicotinate-nucleotide adenylyltransferase; format: functional, Staphylococcus aureus subsp. aureus N315; settings: read-out: IC50_Mean
# Aminopeptidase N = biological target: T7, Aminopeptidase N (Plasmodium falciparum FcB1/Columbia, UniProt O96935); test: malaria alanyl aminopeptidase activity blockers – biochemical, fluorogenic H-Leu-NHMec substrate, 1536-well (AID 1445); design: species or system Plasmodium falciparum 3D7, 3D7
# T7 sequence (O96935 whole entry): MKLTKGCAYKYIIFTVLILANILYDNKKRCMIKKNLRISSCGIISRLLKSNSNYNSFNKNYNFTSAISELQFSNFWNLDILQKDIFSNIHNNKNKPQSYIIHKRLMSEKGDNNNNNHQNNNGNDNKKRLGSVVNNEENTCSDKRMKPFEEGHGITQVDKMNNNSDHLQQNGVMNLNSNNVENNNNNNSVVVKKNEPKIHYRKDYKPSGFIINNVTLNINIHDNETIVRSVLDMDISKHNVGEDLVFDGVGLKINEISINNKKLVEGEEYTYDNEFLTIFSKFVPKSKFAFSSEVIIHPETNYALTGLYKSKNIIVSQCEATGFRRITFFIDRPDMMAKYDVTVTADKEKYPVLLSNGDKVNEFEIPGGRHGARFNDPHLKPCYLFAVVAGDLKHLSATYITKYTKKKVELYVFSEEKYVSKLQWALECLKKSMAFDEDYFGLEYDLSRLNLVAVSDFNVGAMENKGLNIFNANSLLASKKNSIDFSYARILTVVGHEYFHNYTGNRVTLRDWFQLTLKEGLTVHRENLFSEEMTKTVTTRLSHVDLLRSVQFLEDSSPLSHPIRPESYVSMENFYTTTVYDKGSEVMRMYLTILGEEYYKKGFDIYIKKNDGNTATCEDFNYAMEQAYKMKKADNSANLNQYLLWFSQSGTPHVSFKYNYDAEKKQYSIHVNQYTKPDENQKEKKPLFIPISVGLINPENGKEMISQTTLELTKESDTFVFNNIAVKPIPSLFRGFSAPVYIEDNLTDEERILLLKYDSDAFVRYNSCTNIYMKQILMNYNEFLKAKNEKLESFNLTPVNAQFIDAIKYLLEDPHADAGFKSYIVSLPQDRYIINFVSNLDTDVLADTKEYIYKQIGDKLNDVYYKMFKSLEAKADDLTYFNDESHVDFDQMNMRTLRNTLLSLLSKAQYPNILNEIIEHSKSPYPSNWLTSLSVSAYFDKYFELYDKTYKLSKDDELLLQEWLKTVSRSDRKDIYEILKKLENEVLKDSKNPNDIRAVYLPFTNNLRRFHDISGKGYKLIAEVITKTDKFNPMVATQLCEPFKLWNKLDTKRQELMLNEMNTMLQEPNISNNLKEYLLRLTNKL
# [21] = biological target: Long-chain-fatty-acid--AMP ligase FadD28 (Mycobacterium tuberculosis, UniProt P9WQ59); test: Fluorescence polarization aasay to screen for inhibitors that compete for the binding of FadD28 to a bisubstrate Measured in Biochemical System Using Plate Reader - 2147-01_Inhibitor_Dose_CherryPick_Activity.; format: functional, Mycobacterium tuberculosis H37Rv
# Sequence of Long-chain-fatty-acid--AMP ligase FadD28 (P9WQ59 whole entry): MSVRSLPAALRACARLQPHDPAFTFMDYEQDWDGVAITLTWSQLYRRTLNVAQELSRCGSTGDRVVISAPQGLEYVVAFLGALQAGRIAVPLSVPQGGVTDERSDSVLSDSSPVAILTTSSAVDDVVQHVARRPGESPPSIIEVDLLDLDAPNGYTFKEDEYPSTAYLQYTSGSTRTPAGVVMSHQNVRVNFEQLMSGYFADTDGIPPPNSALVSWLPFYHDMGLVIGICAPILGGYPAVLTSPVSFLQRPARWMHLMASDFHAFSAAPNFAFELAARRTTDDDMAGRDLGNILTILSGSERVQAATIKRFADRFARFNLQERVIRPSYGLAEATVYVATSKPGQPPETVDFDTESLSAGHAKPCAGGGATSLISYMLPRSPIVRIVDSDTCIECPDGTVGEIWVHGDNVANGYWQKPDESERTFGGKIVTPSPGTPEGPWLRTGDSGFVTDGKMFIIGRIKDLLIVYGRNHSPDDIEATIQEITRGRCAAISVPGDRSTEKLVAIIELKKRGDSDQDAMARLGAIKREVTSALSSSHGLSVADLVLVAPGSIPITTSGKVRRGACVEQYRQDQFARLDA
# A549 = test: viability loss in A549 cells – cell-based, plate reader, cherry-pick samples, cytotoxicity control, dose response (AID 687028); format: functional; settings: Homo sapiens
# Vero = test: viability loss in Vero cells – cell-based, plate reader, cherry-pick samples, cytotoxicity control, dose response (AID 687020); format: functional; settings: Chlorocebus sabaeus
# [22] = biological target: T8, Small ubiquitin-related modifier 1 (Homo sapiens, UniProt P63165); test: SUMO1 protein-protein binding blockers, potency – biochemical, FRET, dose response (AID 624383); format: functional; settings: read-out: IC50_Mean
# T8 sequence (P63165 whole entry): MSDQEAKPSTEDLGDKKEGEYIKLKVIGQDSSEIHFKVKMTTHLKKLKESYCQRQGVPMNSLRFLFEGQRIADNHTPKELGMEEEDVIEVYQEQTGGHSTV
# [23] = biological target: T8, Small ubiquitin-related modifier 1; test: SUMO1 protein interaction blockers, potency – biochemical, fluorescence polarization, uHTS hits, dose response (AID 624382); format: functional; settings: read-out: IC50_Mean
# [24] = biological target: Fructose-bisphosphate aldolase (Mycobacterium tuberculosis, UniProt P9WQA3); test: Fluorescence-based biochemical high throughput dose response assay for inhibitors of the fructose-bisphosphate aldolase (FBA) of M. tuberculosis.; format: functional
# Sequence of Fructose-bisphosphate aldolase (P9WQA3 whole entry): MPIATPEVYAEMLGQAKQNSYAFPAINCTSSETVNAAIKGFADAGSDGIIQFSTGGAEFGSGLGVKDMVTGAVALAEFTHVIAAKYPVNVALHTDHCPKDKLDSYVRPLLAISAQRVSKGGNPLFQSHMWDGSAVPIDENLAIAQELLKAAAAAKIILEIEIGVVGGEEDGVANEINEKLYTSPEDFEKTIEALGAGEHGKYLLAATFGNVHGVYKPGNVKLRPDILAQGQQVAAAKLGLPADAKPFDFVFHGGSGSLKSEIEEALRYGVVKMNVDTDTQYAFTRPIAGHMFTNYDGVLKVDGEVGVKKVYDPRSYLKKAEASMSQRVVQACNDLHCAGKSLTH
# Sequence of Neurotensin receptor type 1 (P30989 whole entry): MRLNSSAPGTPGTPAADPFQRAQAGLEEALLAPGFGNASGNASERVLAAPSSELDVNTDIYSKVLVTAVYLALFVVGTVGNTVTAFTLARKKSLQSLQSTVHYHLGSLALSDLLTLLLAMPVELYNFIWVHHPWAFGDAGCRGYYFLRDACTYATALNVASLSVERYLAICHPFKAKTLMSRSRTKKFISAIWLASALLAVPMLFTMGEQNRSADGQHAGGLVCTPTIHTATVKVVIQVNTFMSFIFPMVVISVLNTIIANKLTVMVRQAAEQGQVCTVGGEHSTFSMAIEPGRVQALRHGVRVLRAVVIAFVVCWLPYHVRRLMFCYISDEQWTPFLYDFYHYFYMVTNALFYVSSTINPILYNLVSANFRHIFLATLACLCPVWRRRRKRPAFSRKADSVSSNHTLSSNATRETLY
smiles,measurement,setting,value
CC(C)Nc1ccc(Nc2ccnc3cc4ccccc4cc23)cc1,EC50,[1],12.2 µM (active)
same,AC50,[2],51.2 µM (active)
same,IC50,[3],20 µM (active)
same,AC50,[4],0.782 µM (active)
same,EC50,BJ [5],5.35 µM (inconclusive)
same,EC50,BJ [6],3.71 µM (inconclusive)
same,EC50,[7],4.73 µM (active)
same,EC50,[8],0.632 µM (active)
same,CC50,[9],17.2 µM (active)
same,EC50,[10],6.48 µM (active)
same,AC50,INS1,3.15 µM (active)
same,AC50,Paired box protein Pax-8,7.04 µM (active)
same,EC50,BJ [11],9.05 µM (inconclusive)
CC1(C)CCCN(C(=O)c2ccc3c(c2NCCO)C(=O)c2ccccc2C3=O)C1,IC50,Nonstructural protein 1,15.2 µM (active)
same,IC50,[12],> 122 µM (inactive)
same,IC50,[13],17.2 µM (active)
COc1ccc(NC(=S)N2CCC(c3nc4ccc(Cl)cc4[nH]3)CC2)c(OC)c1,EC50,[14],> 195 µM (not active)
same,IC50,[15],53.5 µM (inactive)
same,IC50,[16],26.1 µM (inactive)
C/C(=N\NC(=O)c1ccccc1F)c1ccc2c(c1)Nc1ccccc1S2,IC50,[3],54.7 µM (active)
same,IC50,[17],10.5 µM (active)
same,IC50,[18],11.2 µM (active)
CCOC(=O)C1CCN(C(=O)c2cc3c(s2)-c2ccccc2OC3)CC1,IC50,Beta-galactosidase,> 80 µM (inactive)
Oc1ccc(C[C@H]2CNC(=S)N2CC2CCCN2C[C@H](Cc2ccccc2)N2C[C@H](Cc3ccc(O)cc3)N(CCc3ccccc3)C2=S)cc1 (stereo not given in full),IC50,[19],17 µM (active)
same,IC50,[20],30.5 µM (active)
same,AC50,Paired box protein Pax-8,11.5 µM (active)
CCOc1ccc(N2C(=O)/C(=C\NNc3nnc(C)c(O)n3)c3ccccc3C2=O)cc1,IC50,Nonstructural protein 1,5.02 µM (active)
same,EC50,[14],> 195 µM (not active)
same,IC50,Aminopeptidase N,20.9 µM (active)
same,AC50,[21],64.9 µM (active)
O=C(OCc1cn([C@H]2CN(C(=O)C3CCCCC3)[C@@H](c3ccccc3)C[C@@H]2O)nn1)c1ccccc1,AC50,A549,16.1 µM (active)
same,AC50,Vero,20.2 µM (active)
CCCC(C)C(=O)Nc1nc(C)c(-c2csc(Nc3cc(Cl)ccc3C)n2)s1 (stereo not given),IC50,[22],10.2 µM (active)
same,IC50,[23],> 66.6 µM (inactive)
CN1CCN(C(=O)COc2ccc(-c3nc4ccccc4s3)cc2)CC1,IC50,[24],3.57 µM (active)
